The values that follow come from patent publication US7989466B2, “Methods to inhibit or augment an inflammatory response” (Cambridge Enterprise Limited, priority 1999, dated 2011).

A short description of data set [1]: Acute and 7-day repeat dose rat toxicity. In kind it is in vivo. Particulars: 1 or 10 mg (5-50 mg/kg) i.v. The text has this:
That is, all animals remained clinically normal throughout.

In data set [2] the test system is fMLP induced THP-1 migration. Briefly: THP-1 chemotaxis assay, fMLP as chemoattractant. Particulars: Homo sapiens, fMLP is not a chemokine, read-out: ED50, fMLP chemotaxis assay. Format: cell-based. The procedure: To determine whether an agent inhibits a chemokine-induced activity, such as macrophage recruitment, varying amounts of the agent are mixed with cells in the presence of a known chemoattractant. For example, a range of known concentrations of an agent, e.g., a chemokine peptide, is incubated with a defined number (e.g., 10^4-10^6) of human THP-1 monocyte cells in individual wells of the top compartment of a trans-well plate. Chemokine (such as MCP-1, MIP1α, IL8 or SDF-1α), at a concentration known to cause significant migration of THP-1 cells in the trans-well migration assay, is placed in the lower compartment (FIG. 1). Cells are then incubated at 37° C. for a period sufficient to allow migration, e.g., 4 hours. After incubation, the cells are gently removed from the top of the filter with a pipette, 20 μl of 20 mM EDTA in simple PBS is added into each top well, and incubated for 20 minutes at 4° C. The filter is carefully flushed with media using a gentle flow, and removed. A standard curve consisting of a two-fold dilution series of THP-1 cells (in 29 μl) is prepared to accurately quantify the number of cells that have migrated. […] Absorbance of converted dye is measured at a wavelength of 595 nm using an ELISA plate reader. The number of migrated cells in each well is then determined by interpolation of the standard curve (see also Imai et al., J. Biol. Chem., 272, 15036 (1997)). […]

The subject of the next data set is HIV (IIIb). Description: HIV infectivity of Jurkat T-cells, p24gag immunofluorescence. As to conditions: 100 μM peptide (SDF1α 100 ng/ml), about 48 hours after infection. Format: cell-based. How it is done:
(a) HIV (IIIb) replication in cultures of Jurkat T-cells was estimated by measuring the supernatant reverse transcriptase activity two weeks after infection. Peptide 2 and peptide 3 were at 100 μM final concentration and SDF-1α was added at 100 ng/ml final concentration 1 hour prior to exposure to virus. Values are mean±SEM from 12 wells, expressed as the percentage of the reverse transcriptase activity in the supernatant from the control wells. The experiment shown is typical of six separate experiments. (b) HIV (IIIb) infectivity of Jurkat T-cells was estimated by staining cells treated identically to those in (a) for p24^gag expression. Values are mean±S.D. percentage of cells stained for p24gag averaged from 12 fields of view from each of two separate wells. (c) HIV (MN) infectivity of THP-1 cells measured as in (b). […] Both fields of view contain 40-50 cells (assessed by Hoeschst 33345 staining viewed under UV illumination conditions).
Jurkat cells following HIV infection were attached to 8-well chamber slides (Becton-Dickinson) by spinning the slides using a plate rotor in a Labofuge centrifuge (Haeraeus) at 3,000×g for 5 minutes. […] A threshold was then applied to each image which was the lowest threshold that detected <1% of the pixels of an image of uninfected cells stained under identical conditions. The number of objects exceeding this threshold in each field of view were counted. […]

Positions of bridges follow the written chain, without caps; N, C: chain ends. Non-standard residues stand in square brackets, D forms with d. Residues, ends and D or L forms follow the SMILES beside them.

Regarding `CC[C@@H](C)[C@H]1NC(=O)[C@@H](CCC(N)=O)NC(=O)[C@H](N)CSSC[C@H](C(N)=O)NC(=O)[C@@H](CC(C)C)NC(=O)[C@@H](CC(=O)O)NC(=O)[C@H]2CCCN2C(=O)[C@@H](CCCCN)NC(=O)[C@@H](CCC(N)=O)NC(=O)[C@@H](CCCCN)NC(=O)[C@@H](Cc2c[nH]c3ccccc23)NC1=O` (H-[dC][dQ][dI][dW][dK][dQ][dK][dP][dD][dL][dC]-NH2; disulfide 1-11; N-terminus assumed), the “acute rat toxicity, clinical findings” value in data set [1] was “no clinically detectable changes”. With `C=CCCCCCCCCC(=O)N[C@H]1CCC(=O)NC1=O` [A-I (NR58.4), [3S]-3-(undec-10-enoylamino)piperidine-2,6-dione], the EC50 in data set [2] is greater than 100 µM.

As to EICADPKQKWVQ [peptide 3(1-12)[MCP-1]], in the data set with HIV (IIIb), the “inhibition of viral infectivity, p24gag staining, Jurkat T-cells” value is recorded as “ineffective”.
